Laboratory results taken from patent US20230331707A1, “PROGRAMMED CELL NECROSIS INHIBITOR, PREPARATION METHOD THEREFOR, AND USE THEREOF” (Shanghai Institute of Organic Chemistry, Chinese Academy of …, priority 2020, published 2023).
Read-outs that look alike come from different tables or passages of the source.

What was measured:
L929 cells = experiment: Inhibition of TNF-induced programmed necrosis of L929 cells (Cell Titer-Glo viability); assay type: cell-based, mouse
Excerpt: (§1) The adopted biological assay protocol was: the effect of compounds on programmed necroptosis of TNF-induced FADD (Fas-Associated Death Domain) deficient Jurkat cells and L929 cells.
(§2) In order to verify the inhibitory effect of the compounds of the present invention on programmed cell necrosis at the cellular level, cell types that is closely related to the RIP1 pathway, namely FADD deficient Jurkat cells (human peripheral blood leukemia T cell strain) and L929 cells, were selected. Two different stimulation methods were used: tumor necrosis factor (TNFα) was used alone, or TNFα was used in combination with mitochondria-derived cysteine aspartate activator (SMAC) SM164. Cells viability was calculated by detecting chemiluminescence values, thereby obtaining the biological activity of the compound on the inhibition of programmed cell necrosis.
(§3) Methods: FADD deficient Jurkat cells: FADD deficient Jurkat cells (human peripheral blood leukemia T cell line) were cultured in vitro. After growing to the logarithmic growth phase, the cells were collected, centrifuged at 1000 rpm for 5 min, the supernatant was discarded, and the cell concentration was adjusted to 2.5×10^5/mL. Cells were seeded into 384-well plates, 40 μl per well. 5 μL of SM164 (50 nM) diluted in cell culture medium and 5 μL of each compound were added to the corresponding wells. After pretreatment at 37° C. for 1 h, 5 μL of TNFα (50 ng/mL) diluted in cell culture medium was added to each well of the stimulation group, and 5 μL of the culture medium was added to the control group. The plate was cultured in a cell incubator (37° C., 5% CO2) for 14 h, and […] of Cell Titer-Glo solution was added to each well, then incubated for 30 min at room temperature, and intracellular ATP level was measured by detecting luminescence. The unstimulated DMSO control wells were taken as 100% cell viability. L929 cells: The L929 cells (mouse fibroblasts) were cultured in vitro, digested and diluted to 6.25×10^4/ml, and the cells were seeded into 384-well plates, 40 μl per well. The plate was placed in a cell incubator (37° C., 5% CO2) for 12 hours. 5 μL of SM164 (500 nM) diluted in cell culture medium and 5 μL of each compound were added to the corresponding wells. After pretreatment at 37° C. for 1 h, 5 μL of TNFα (500 ng/mL) diluted in cell culture medium was added to each well of the stimulation group, and 5 μL of the culture medium was added to the control group. After the plate was cultured for 14 h in a cell incubator (37° C., 5% CO2), 15 μl of Cell Titer-Glo solution was added to each well. The plate was incubated at room temperature for 30 min, and intracellular ATP level was measured by detecting luminescence. The unstimulated DMSO control wells were taken as 100% cell viability. EC50 values of the compounds were calculated using Prism Graphpad statistical software.

FADD−/− Jurkat cells = experiment: Inhibition of TNF-induced programmed necrosis of FADD deficient Jurkat cells (Cell Titer-Glo viability); assay type: cell-based; conditions: for activity of inhibition of programmed necrosis compared with GSK2982772: human FADD-deficient Jurkat cells, TNFα alone or in combination with SM164
Excerpt: as §1, §2, §3

[1] = Mus musculus, L929, L929 cells, stimulated with TNFα + SM164, read-out: EC50 (μM) L929 cells (mouse) TNFα + SM164
[2] = Mus musculus, L929, L929 cells, stimulated with TNFα alone, read-out: EC50 (μM) L929 cells (mouse) TNFα
[3] = Homo sapiens, Jurkat, 14 h, FADD−/− Jurkat cells, stimulated with TNFα + SM164, read-out: EC50 (μM) FADD−/− Jurkat cells (human) TNFα + SM164
[4] = Homo sapiens, Jurkat, FADD−/− Jurkat cells, stimulated with TNFα alone, read-out: EC50 (μM) FADD−/− Jurkat cells (human) TNFα
[5] = FADD−/− Jurkat cells, stimulated with TNFα + SM164, read-out: EC50 (μM) FADD−/− Jurkat cells (human) TNFα + SM164
[6] = FADD−/− Jurkat cells, stimulated with TNFα alone, read-out: EC50 (μM) FADD−/− Jurkat cells (human) TNFα

Row | Structure (SMILES) | EC50 (L929 cells; [1]) [nM] | EC50 (L929 cells; [2]) [nM] | EC50 (FADD−/− Jurkat cells; [3]) [nM] | EC50 (FADD−/− Jurkat cells; [4]) [nM] | also measured
1 | CCn1ncc(C(=O)NCc2ccc(-n3cnc4c(N)ncnc43)cc2)c1Cc1ccccc1 [QY-10-65] | 73.8 | 22.1 | 34.6 | 1.2 | –
2 | CNC(=O)c1ccc2c(ccn2-c2ccc(CNC(=O)c3cc(Cc4ccccc4)n(C)n3)cc2)c1 [ZSQ-15-68] | 1800 | 610 | 670 | 115 | –
3 | CC(NC(=O)c1cnn(C)c1Cc1ccccc1)c1ccc(-n2cnc3c(N)ncnc32)cc1 (centres unmarked) [QY-12-31] | 0.569 | 0.356 | 0.254 | 0.0967 | –
4 | CN(C)CCNC(=O)c1ccc2c(c1)ncn2-c1ccc(CNC(=O)c2cnn(C)c2Cc2ccccc2)cc1 [QY-11-74B] | 0.687 | 0.386 | 3.73 | 0.293 | –
5 | COc1ccc2c(c1)ncn2-c1ccc(CNC(=O)c2cnn(C)c2Cc2ccccc2)cc1 [QY-11-102A] | 0.0793 | 0.00513 | – | – | EC50 (FADD−/− Jurkat cells; [5]): 0.0649 nM; EC50 (FADD−/− Jurkat cells; [6]): 0.00168 nM
6 | Nc1ncnc2c1ccn2-c1ccc(CNC(=O)c2n[nH]c(Cc3ccccc3)n2)cc1 [QY-8-60, N-(4-(4-amino-7H-pyrrolo[2,3-d]pyrimidine-7-yl)benzyl)-5-benzyl-1H-1,2,4-triazol-3-carboxamide] | > 10000 | > 10000 | > 10000 | > 10000 | –
7 | Nc1ncnc2c1ncn2-c1ccc(CNC(=O)Cc2cccc(OC(F)(F)F)c2)cc1 [QY-9-70] | 6300 | 350 | > 10000 | 2960 | –
8 | CCCn1nc(C(=O)NCc2ccc(-n3cnc4cc(C(=O)NC)ccc43)cc2)cc1Cc1ccccc1 [XHJ-4-48] | > 10000 | 3010 | 738 | 109 | –
9 | CNC(=O)c1ccc2c(c1)ncn2-c1ccc(NC(=O)c2nocc2Cc2ccccc2)cc1 [QY-6-15] | > 10000 | > 10000 | > 10000 | 1370 | –
10 | CNC(=O)c1ccc2c(c1)ncn2-c1ccc(CNC(=O)c2ccc(F)n2Cc2ccccc2)cc1 [QY-12-47] | 34.4 | 6 | 17.4 | 1.74 | –
11 | CN(C)CCNC(=O)c1ccc2ncn(-c3ccc(CNC(=O)c4cnn(C)c4Cc4ccccc4)cc3)c2c1 [QY-11-74A] | > 10000 | > 10000 | 368 | 53 | –
12 | Nc1ncnc2c1ccn2-c1ccc(CNC(=O)c2nnn(Cc3ccccc3)n2)cc1 [QY-8-58, N-(4-(4-amino-7H-pyrrolo[2,3-d]pyrimidin-7-yl)benzyl)-2-benzyl-2H-tetrazol-5-carboxamide] | > 10000 | > 10000 | 577 | 196 | –
13 | CC(c1ccc(-n2cnc3c(N)ncnc32)cc1)N1CCc2nn(C)c(Cc3ccccc3)c2C1=O (centres unmarked) [QY-12-90] | 42.7 | 2.41 | 0.813 | 0.13 | –
14 | COc1ccc2c(c1)ncn2-c1ccc(CNC(=O)c2cnn(C)c2Cc2ccccc2)cc1 [QY-12-4] | – | – | – | – | EC50 (FADD−/− Jurkat cells; [5]): 128 nM; EC50 (FADD−/− Jurkat cells; [6]): 17.6 nM
15 | Nc1ncnc2c1ncn2-c1ccc(CNC(=O)c2ccc(F)n2Cc2ccccc2)cc1 [ZSQ-21-30] | 7.41 | 0.916 | 1.6 | 0.0853 | –
16 | Nc1ncnc2c1ccn2-c1ccc(CNC(=O)Cc2cccc(OC(F)(F)F)c2)cc1 [QY-9-69, O—N-(4-(4-amino-7H-pyrrolo[2,3-d]pyrimidine-7-yl)benzyl)-2-(3-(trifluoromethoxy)phenyl)acetamide] | > 10000 | 567 | > 10000 | > 10000 | –

Row | Structure (SMILES) | EC50 (L929 cells; [1]) [nM] | EC50 (L929 cells; [2]) [nM] | EC50 (FADD−/− Jurkat cells; [3]) [nM] | EC50 (FADD−/− Jurkat cells; [4]) [nM] | also measured
17 | C[C@@H](c1ccc(-n2cnc3c(N)ncnc32)cc1)N1CCc2nn(C)c(Cc3ccccc3)c2C1=O [QY-13-33] | 3.02 | 1.32 | 2.85 | 0.296 | activity of inhibition of programmed necrosis compared with GSK2982772 (FADD−/− Jurkat cells): stronger activity
18 | Cn1nc(Cl)c(C(=O)NCc2ccc(-n3cnc4c(N)ncnc43)cc2)c1Cc1ccccc1 [QY-12-100] | 4.63 | 0.458 | 0.734 | 0.172 | activity of inhibition of programmed necrosis compared with GSK2982772 (FADD−/− Jurkat cells): stronger activity
19 | CNC(=O)c1ccc2c(c1)ncn2-c1ccc(CC(=O)NCc2c[nH]c3ccccc23)cc1 [QY-5-35, 1-(4-(2-(((1H-indole-3-yl)methyl)amino)-2-oxoethyl)phenyl)-N-methyl-1H-benzo[d]imidazol-5-formamide] | > 10000 | > 10000 | > 10000 | 2490 | –
20 | CNC(=O)c1ccc2c(c1)ncn2-c1ccc(CNC(=O)c2nnc(Cc3ccccc3)o2)cc1 [QY-7-32, 5-Benzyl-N-(4-(5-(methylcarbamoyl)-1H-benzo[d]imidazol-1-yl)benzyl)-1,3,4-oxadiazol-2-carboxamide] | > 10000 | > 10000 | 1520 | 185 | –
21 | C[C@H](NC(=O)c1c(Cl)nn(C)c1Cc1ccccc1)c1ccc(-n2cnc3c(N)ncnc32)cc1 [QY-13-29] | 0.462 | 0.317 | 0.318 | 0.0916 | –
22 | Cn1nc(C(=O)NCc2ccc(-n3ncc4c(N)ncnc43)cc2)cc1Cc1ccccc1 [ZSQ-15-48] | > 10000 | 6550 | 451 | 70.9 | –
23 | N#Cc1ccc(C(=O)NCc2ccc(-n3cnc4c(N)ncnc43)cc2)n1Cc1ccccc1 [QY-12-51] | 3770 | 875 | 1860 | 214 | –
24 | C[C@H](NC(=O)c1nnn(C)c1Cc1ccccc1)c1ccc(-n2cnc3c(N)ncnc32)cc1 [QY-13-50] | – | – | 0.001 | 0.001 | –
25 | CN1CCN(CCNC(=O)c2ccc3ncn(-c4ccc(CNC(=O)c5cnn(C)c5Cc5ccccc5)cc4)c3c2)CC1 [QY-11-69A] | > 10000 | > 10000 | 194 | 3 | –
26 | Cn1nc(C(=O)NCc2ccc(-n3cnc4c(N)ncnc43)cc2)cc1Cc1ccccc1 [QY-8-31] | – | – | – | – | EC50 (L929 cells; L929 cells, stimulated with TNFα + SM164, read-out: EC50 (μM) L929 cells (mouse) TNFα + SM164): > 10000 nM; EC50 (L929 cells; L929 cells, stimulated with TNFα alone, read-out: EC50 (μM) L929 cells (mouse) TNFα): > 10000 nM; EC50 (FADD−/− Jurkat cells; [5]): 7400 nM; EC50 (FADD−/− Jurkat cells; [6]): 1300 nM
27 | Cn1ncc(C(=O)NCc2ccc(-c3ccnc4[nH]ccc34)cc2)c1Cc1ccccc1 [QY-11-79] | > 10000 | > 10000 | 747 | 152 | –
28 | CNC(=O)c1ccc2c(c1)ncn2-c1ccc(CNC(=O)c2cnn(C)c2Cc2ccccc2)cc1 [QY-10-73] | 76.7 | 20 | 5.2 | 0.0697 | –
29 | Nc1ncnc2c1ncn2-c1ccc(CNC(=O)c2cncn2Cc2ccccc2)cc1 [ZSQ-21-14] | – | – | > 10000 | 290 | –
30 | CNC(=O)c1ccc2c(c1)ncn2-c1ccc(CC(=O)N(O)Cc2ccccc2)cc1 [QY-5-62, 1-(4-(2-(benzyl(hydroxy)amino)-2-oxoethyl)phenyl)-N-methyl-1H-benzo[d]imidazol-5-formamide] | > 10000 | 3800 | – | – | EC50 (FADD−/− Jurkat cells; Homo sapiens, Jurkat, 14 h, read-out: EC50 (μM) FADD−/− Jurkat cells (human) TNFα + SM164): 98 nM; EC50 (FADD−/− Jurkat cells; Homo sapiens, Jurkat, read-out: EC50 (μM) FADD−/− Jurkat cells (human) TNFα): 4.98 nM
31 | COc1cc2ncnc(-c3ccc(CNC(=O)c4cnn(C)c4Cc4ccccc4)cc3)c2cc1OC [QY-11-75] | > 10000 | > 10000 | 1500 | 233 | –
32 | CNC(=O)c1ccc2c(cnn2-c2ccc(CNC(=O)c3cnn(C)c3Cc3ccccc3)cc2)c1 [QY-11-104] | – | – | 48.4 | 4.43 | –
